From patent US5130300A, “Method for enhancing growth of mammary parenchyma” (Monsanto Company, priority 1987, dated 1992)

Legend:
[1] = tested on: Quarter-Udders in Pregnant Beef Cows; experiment: Intramammary infusion of hEGF, quarter-udder weights and DNA (Examples 7-8); format: in vivo, cross-bred beef cows
Description: 24 pregnant, non-lactating, cross-bred beef cows within their last 40-80 days of gestation were randomly divided into 3 treatment groups with 8 animals in each group.

[2] = tested on: Quarter-Udders in Pregnant Beef Cows; experiment: Intramammary infusion of hEGF, quarter-udder weights and DNA (Examples 3-6); format: in vivo, cross-bred beef cows; conditions: for DNA, % Increase, (A-B)/B / DNA, Mean Increase (A-B) / Dry Fat-Free Weight, % Increase, (A-B)/B / Dry Fat-Free Weight, Mean Increase (A-B) / Dry Weight, % Increase, (A-B)/B / Dry Weight, Mean Increase (A-B) / Wet Weight, % Increase, (A-B)/B / Wet Weight, Mean Increase (A-B): B = excipient only
Description: 24 pregnant, non-lactating, cross-bred beef cows within their last 40-80 days of gestation were randomly divided into 4 treatment groups with 6 animals in each group.

[3] = tested on: Quarter-Udders in Pregnant Beef Cows; experiment: Intramammary infusion of hEGF or mEGF, quarter-udder weights and DNA (Examples 1-2); format: in vivo, cross-bred beef cows; conditions: 25 micrograms per infusion, days 1,3,5,7,9, Freund's emulsion
Procedure: 12 pregnant, non-lactating, cross-bred beef cows within their last 40-80 days of gestation were housed in a free-stall facility, fed a ration of alfalfa hay and pelleted concentrate, and administered 10 ml of an excipient (Freund's Incomplete Adjuvant emulsified with an equal volume of 0.9% sterile saline) into each quarter-udder by intramammary infusion through the streak canal on days 1, 3, 5, 7 and 9 of this study. Infusions were carried out using a 3.2 centimeter long, approximately 12 gauge, blunt-tipped plastic teat infusion cannula obtained from Jorgensen Laboratories, Loveland, Colo. Because front and rear udder halves are not of equal size, treatment vs. control comparisons were made between laterally opposite quarters, i.e., front right vs. front left and rear right vs. rear left. Treatments were randomly assigned to right or left udder-halves, with the contralateral half serving as its control. […] (the other 6 animals).
Prior to treatment, each animal was teatdipped for 3 consecutive days and each teat was pre-cleaned with 70% ethanol in water on the day of treatment. On day 14 the cows were sacrificed and their mammary glands excised. Each udder (milked out if necessary) was skinned, divided along the median suspensory ligament and then into front right, front left, rear right and rear left udder quarters. Each quarter-udder was ground, a representative 200 gm sample was homogenized with 4 times its volume of water, and the total homogenate volume of each was measured.
To determine dry weight of each quarter-udder, three 10 ml aliquots of a 1:5 diluted homogenate were placed in pre-weighed pans, dried overnight at 60° and then dried and weighed to a consistent value.
To determine dry fat-free tissue weight of each quarter-udder, three 5 ml aliquots of the undiluted homogenate were extracted by the method of Anderson, 41 J. Anim. Sci. 118 (1975) except that samples were placed in pre-weighed 25×150 mm glass centrifuge tubes and extracted overnight with 10 ml ethanol:ether (3:1), then centrifuged (5 min at 500 rpm) and the supernatant aspirated; an additional 10 ml aliquot of ethanol:ether was added for a second extraction; and the sample was dried under nitrogen until a consistent value was obtained.
DNA in each quarter-udder was determined by the method of Burton, 12B Methods in Enzymol. 163-66 (1968) using an assay solution of 15% trichloroacetic acid (TCA) in 2N HCl. In these determinations, aliquots of gland homogenate were diluted 1:5 with water and rehomogenized. Using triplicate 0.25 ml or 0.5 ml aliquots of these homogenates, each aliquot was mixed with 2 ml of the assay solution. After 30 min, the samples were centrifuged for 10 min at 3000 rpm and the resulting pellets were washed with 2 ml of a 10% solution of TCA in distilled water. After recentrifugation, the resulting pellets were disrupted in 2 ml of 0.5N perchloric acid and heated for 30 min at 70° to extract DNA. Samples were centrifuged and 1 ml of each resulting supernatant was placed in a 12×75 mm tube. After addition of 2 ml of a solution of 1.5 g diphenylamine and 1.5 ml H2 SO4 in 100 ml glacial acetic acid (and 0.1 ml of 1.6% aqueous acetaldehyde per 20 ml reagent just prior to use), the samples were vortexed and incubated overnight at 27°. Calf thymus DNA was the standard.

[4] = tested on: pregnant Holstein heifers; experiment: Intramammary infusion until parturition, milk production in first 105 days of lactation (Example 13); format: in vivo; conditions: one animal, 250 micrograms hEGF every third day only until 15 days before parturition
Procedure: 48 pregnant Holstein heifers within their last 40 days (approximately) of gestation were housed in a free-stall facility, fed a ration of alfalfa hay and pelleted concentrate, and administered 10 ml of an excipient into each quarter-udder by intramammary infusion through the streak canal every third day until parturition with the exception of one animal which was treated with human EGF as described in this Example only until 15 days before parturition. Infusions were carried out using a 3.2 centimeter long, approximately 12 gauge, blunt-tipped plastic teat infusion cannula obtained from Jorgensen Laboratories, Loveland, Colo. […] In each animal, all 4 quarter-udders received the same treatment. Each udder was sprayed with 70% ethanol and wiped dry prior to treatment and dipped with an iodine solution following treatment. At parturition, 4 animals from each treatment group were sacrificed and their mammary glands were removed for analysis. The other 8 animals from each treatment group were milked normally each a.m. and p.m. for the first 105 days of lactation.

[5] = Group 1: total of 125 micrograms hEGF
[6] = Group 1: total of 125 micrograms hEGF, B = excipient only
[7] = Group 2: total of 1.25 milligrams hEGF
[8] = Group 2: total of 1.25 milligrams hEGF, B = excipient only
[9] = Group 1: total of 125 micrograms hEGF in Freund's emulsion
[10] = Group 2: total of 125 micrograms hEGF in sesame emulsion
[11] = Group 3: total of 12.5 micrograms hEGF in sesame emulsion
[12] = Group 4: total of 1.25 milligrams hEGF in sesame emulsion
[13] = B = opposite quarter, excipient only

Substance: hEGF: human EGF from G. D. Searle & Co., prepared by expression of recombinant DNA, purity above 90%
- DNA, Treatment Mean [1, 5]: 396.9 mg
- Dry Fat-Free Weight, Treatment Mean [1, 5]: 52.8 g
- Dry Weight, Treatment Mean [1, 5]: 113.0 g
- Wet Weight, Treatment Mean [1, 5]: 363.0 g
- DNA, % Increase, (A-B)/B [1, 6]: 10.6%
- DNA, Mean Increase (A-B) [1, 6]: 38.0 mg
- Dry Fat-Free Weight, % Increase, (A-B)/B [1, 6]: 4.1%
- Dry Fat-Free Weight, Mean Increase (A-B) [1, 6]: 2.1 g
- Dry Weight, % Increase, (A-B)/B [1, 6]: 3.0%
- Dry Weight, Mean Increase (A-B) [1, 6]: 3.3 g
- Wet Weight, % Increase, (A-B)/B [1, 6]: 1.5%
- DNA, Treatment Mean [1, 7]: 344.0 mg
- Dry Fat-Free Weight, Treatment Mean [1, 7]: 63.8 g
- Wet Weight, Treatment Mean [1, 7]: 392.5 g
- Dry Fat-Free Weight, % Increase, (A-B)/B [1, 8]: 3.9%
- Dry Fat-Free Weight, Mean Increase (A-B) [1, 8]: 2.4 g
- Dry Weight, % Increase, (A-B)/B [1, 8]: 5.3%
- Dry Weight, Mean Increase (A-B) [1, 8]: 6.3 g
- Wet Weight, % Increase, (A-B)/B [1, 8]: 1.1%
- Wet Weight, Mean Increase (A-B) [1, 8]: 4.3 g
- DNA, Avg % Increase/Animal [2, 9]: 23.0%
- DNA, Treatment Mean [2, 9]: 723.0 mg
- Dry Fat-Free Weight, Avg % Increase/Animal [2, 9]: 8.3%
- Dry Fat-Free Weight, Treatment Mean [2, 9]: 60.3 g
- Dry Weight, Treatment Mean [2, 9]: 107.2 g
- Wet Weight, Treatment Mean [2, 9]: 364.9 g
- DNA, % Increase, (A-B)/B [2, 9]: 14.9%
- DNA, Mean Increase (A-B) [2, 9]: 94.0 mg
- Dry Fat-Free Weight, % Increase, (A-B)/B [2, 9]: 6.2%
- Dry Fat-Free Weight, Mean Increase (A-B) [2, 9]: 3.5 g
- Dry Weight, % Increase, (A-B)/B [2, 9]: 6.1%
- Dry Weight, Mean Increase (A-B) [2, 9]: 6.2 g
- Wet Weight, % Increase, (A-B)/B [2, 9]: 4.4%
- Wet Weight, Mean Increase (A-B) [2, 9]: 15.4 g
- DNA, Avg % Increase/Animal [2, 10]: 70.0%
- DNA, Treatment Mean [2, 10]: 995.0 mg
- Dry Fat-Free Weight, Avg % Increase/Animal [2, 10]: 15.9%
- Dry Fat-Free Weight, Treatment Mean [2, 10]: 71.0 g
- Dry Weight, Avg % Increase/Animal [2, 10]: 20.2%
- Wet Weight, Avg % Increase/Animal [2, 10]: 10.4%
- Wet Weight, Treatment Mean [2, 10]: 370.2 g
- DNA, % Increase, (A-B)/B [2, 10]: 41.5%
- DNA, Mean Increase (A-B) [2, 10]: 292.0 mg
- Dry Fat-Free Weight, % Increase, (A-B)/B [2, 10]: 3.2%
- Dry Fat-Free Weight, Mean Increase (A-B) [2, 10]: 2.2 g
- Dry Weight, % Increase, (A-B)/B [2, 10]: 9.9%
- Dry Weight, Mean Increase (A-B) [2, 10]: 11.0 g
- Wet Weight, % Increase, (A-B)/B [2, 10]: 3.9%
- Wet Weight, Mean Increase (A-B) [2, 10]: 14.0 g
- DNA, Treatment Mean [2, 11]: 867.6 mg
- Dry Fat-Free Weight, Avg % Increase/Animal [2, 11]: 16.3%
- Dry Fat-Free Weight, Treatment Mean [2, 11]: 79.4 g
- Dry Weight, Avg % Increase/Animal [2, 11]: 7.8%
- Dry Weight, Treatment Mean [2, 11]: 132.4 g
- Wet Weight, Avg % Increase/Animal [2, 11]: 0.6%
- Wet Weight, Treatment Mean [2, 11]: 397.8 g
- Dry Fat-Free Weight, Mean Increase (A-B) [2, 11]: 6.7 g
- Dry Weight, % Increase, (A-B)/B [2, 11]: 4.2%
- Dry Weight, Mean Increase (A-B) [2, 11]: 5.4 g
- DNA, Avg % Increase/Animal [2, 12]: 1.6%
- DNA, Treatment Mean [2, 12]: 733.2 mg
- Dry Fat-Free Weight, Treatment Mean [2, 12]: 81.7 g
- Dry Weight, Treatment Mean [2, 12]: 131.5 g
- Wet Weight, Avg % Increase/Animal [2, 12]: 9.9%
- Wet Weight, Treatment Mean [2, 12]: 391.9 g
- DNA, % Increase, (A-B)/B [2, 12]: 0.5%
- DNA, Mean Increase (A-B) [2, 12]: 4.0 mg
- Dry Fat-Free Weight, Mean Increase (A-B) [2, 12]: 6.6 g
- Dry Weight, Mean Increase (A-B) [2, 12]: 13.6 g
- Wet Weight, Mean Increase (A-B) [2, 12]: 31.7 g
- DNA, Mean Increase (A-B) [3, 13]: 84.5 mg
- Dry Fat-Free Weight, Mean Increase (A-B) [3, 13]: 4.9 g
- Dry Weight, % Increase, (A-B)/B [3, 13]: 7.7%
- Wet Weight, Mean Increase (A-B) [3, 13]: 32.6 g
- DNA, Treatment Mean ([3]; day 14): 794.5 mg
- Dry Fat-Free Weight, Treatment Mean ([3]; day 14): 63.2 g
- Dry Weight, Treatment Mean ([3]; day 14): 120.0 g
- Wet Weight, Treatment Mean ([3]; day 14): 389.9 g
- DNA, Avg % Increase/Animal ([3]; vs excipient-only quarter): 14.8%
- Dry Fat-Free Weight, Avg % Increase/Animal ([3]; vs excipient-only quarter): 16.1%
- Wet Weight, Avg % Increase/Animal ([3]; vs excipient-only quarter): 12.9%
- Average milk production more than average of the 8 control cows [4]: 9.6 kg milk/day
- Average milk production more than average of the 8 control cows, percent [4]: 34.8%
